Experimental data published in US20110152166A1, “METHOD OF MODULATION OF PROTEIN PHOSPHORYLATION-DEPENDENT CONFORMATIONAL TRANSITIONS WITH LOW MOLECULAR WEIGHT COMPOUNDS” (priority 2006, published 2011).
Ends that are not written are not given here.

Biological target: T1, PDK1 50-360 [CT-PIF] (Homo sapiens, UniProt O15530)
T1 construct: comprising residues 50-360 joined to the last 48 aminoacids from PRK2; His-tag (pFastbac-HT) (N); made in house; host or cells: insect cells (pFastbac-HT baculovirus system); the other entry of the earlier key: PKN2 (Q16513, Serine/threonine-protein kinase N2)
T1 sequence (O15530 with tags, fused parts or gaps): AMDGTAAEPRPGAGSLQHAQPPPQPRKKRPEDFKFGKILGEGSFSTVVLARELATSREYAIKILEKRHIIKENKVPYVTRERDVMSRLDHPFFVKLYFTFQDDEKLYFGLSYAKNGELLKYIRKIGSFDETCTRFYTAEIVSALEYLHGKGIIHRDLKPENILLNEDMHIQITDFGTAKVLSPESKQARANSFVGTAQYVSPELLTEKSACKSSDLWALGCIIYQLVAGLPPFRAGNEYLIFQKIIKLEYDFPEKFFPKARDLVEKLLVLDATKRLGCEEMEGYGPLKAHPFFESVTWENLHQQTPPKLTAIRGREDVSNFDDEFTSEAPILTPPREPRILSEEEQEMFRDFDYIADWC
Assay: PDK1 activity assay with T308tide
Type: biochemical
Conditions: for AC50: PDK1 50-360 [CT-PIF]; for effect on specific activity of chimera (in words): PDK1 50-360[CT-PIF] chimera
From the text: We generated a PDK1 chimera consisting of the catalytic domain of PDK1 comprising residues 50-360 joined to the last 48 aminoacids from PRK2, which include the sequence of PIFtide (PDK1 50-360[CT-PIF]). PIFtide binds with high affinity to PDK1. Therefore, we expected that the HM/PIF-pocket in this protein would be strongly bound to the C-terminus of PRK2. In this scenario, the specific activity of the PDK1 50-360[CT-PIF] chimera would not be affected by compounds which otherwise would bind to the PDK1 50-360 HM/PIF-pocket. The PDK1 50-360[CT-PIF] chimera had 1.5-fold higher specific activity than the PDK1 catalytic domain alone. Furthermore, the activity of PDK1 50-360[CT-PIF] chimera was not affected by PIFtide at concentrations that activated the PDK1 50-360 protein (FIG. 2G). Finally, PDK1 50-360[CT-PIF] specific activity was not affected by compound 1, further supporting the notion that PIFtide and compound 1 targeted an overlapping site in the catalytic domain of PDK1.
For the spectrofluorometer assay, the PDK1 protein used was the catalytic domain of PDK1 (50-359) produced in SF9 insect cells using baculovirus expression technology (Invitrogen). PDK1 was cloned in pFastbac-HT plasmid (NcoI-KpnI sites) taking advantage of an endogenous NcoI site in the PDK1 DNA sequence. The codon corresponding to aminoacid 360 was replaced by a stop codon. […]
Protein kinase activity tests were performed essentially as previously described (Balendran et al., 2000; Biondi et al., 2000; Biondi et al., 2001). Substrates used were either MBP (for PKCζ or polypeptides (Crosstide for PKB, S6K, SGK and PRK2; T308tide for PDK1, and Kemptide for PKA). PKA (Sigma) was measured in the presence of 100 μM cAMP. Alternatively, assays were performed in a 96 well format, aliquots spotted on p81 phosphocellulose papers (Whatmann), washed in 0.01% phosphoric acid, dried, and then exposed and analysed using Phospholmager technology (Storm, Molecular Dynamics). Activity measurements were performed in duplicates with less than 10% difference between duplicate pairs. Experiments were repeated at least twice, although most of the experiments were repeated multiple times, with similar results.
PDK1 activity assay was performed in a 20 μl mix containing 50 mM Tris-HCl pH 7.5, 0.05 mg/ml BSA, 0.1% β-mercaptoethanol, 10 mM MgCl2, 100 μM [γ^32P]ATP (5-50 cpm/pmol), 0.003% Brij, 150 ng PDK1, and T308tide (from 0.05 to 1 mM). PDK1 specific activity was approximately 5 U/mg (when measured at 1 mM T308tide). […]
PDK1 activity was measured at room temperature using a polypeptide substrate derived from the activation loop phosphorylation site of PKB, T308tide (0.1 mM). […]

Row | AC50 | effect on specific activity of chimera (in words) | Compound
1 | No Effect | not affected | O=C(O)CSC(CC(=O)c1ccc(Cl)cc1)c1ccccc1 (stereo not shown) [Compound 1]
2 | No Effect | not affected | REPRILSEEEQEMFRDFDYIADWC [PIFtide, reference compound]
